In US20110166149A1, “PTERIDINE DERIVATIVES FOR TREATING RESPIRATORY DISEASE” (TARGEGEN INC., priority 2008, published 2011):
Where two headings read alike, the source gives them in different places.

Experiment: Inhalation exposure: Compound A concentration in lung, plasma and BALF (Example 2)
Type: in vivo, BALB/c mice
Conditions: for AUC(0-inf) / Cmax / Tmax / AUC(0-t) / concentration at 0.083 h / concentration at 0.25 h / concentration at 0.5 h / concentration at 1 h / concentration at 2 h / concentration at 4 h / concentration at 8 h / concentration at 12 h / concentration at 24 h: male, BALB/c; for AUC(0-inf) / Cmax / Tmax / AUC(0-t): inhaled or intranasal; for AUC(0-t): read-out: AUC(0-24); for concentration at 0.083 h / concentration at 0.25 h / concentration at 0.5 h / concentration at 1 h / concentration at 2 h / concentration at 4 h / concentration at 8 h / concentration at 12 h / concentration at 24 h: mouse, inhaled, mice, 30 min inhalation
Protocol: A series of compositions for pulmonary delivery were prepared by making a 20% suspension of compound A in a 5% tyloxapol solution in water. Particle size reduction was achieved using a colloid mill (magicLAB®, MK module, for 6 hours @ 12,000 rpm, while maintaining a temperature below 50° C.). Samples at 4% w/v compound A were prepared by dilution with DI water.
Low (0.02 mg/L), mid (0.07 mg/L), and high (0.20 mg/L) target aerosol concentrations 0.3% Compound A/0.075% tyloxapol, 0.6% Compound A/0.15% tyloxapol, and 1.5% Compound A/0.375% tyloxapol suspensions were used. These low, mid, and high target formulations were prepared as follows: […]
4% compound A and 1% tyloxapol were removed from refrigeration and approximately 2.25, 4.5, and 12 mL were transferred into clean 50 mL graduated plastic tubes, labeled 0.3% A/0.075% tyloxapol, 0.6% A/0.15% tyloxapol, and 1.5% A/0.375% tyloxapol suspensions and allowed to warm to room temperature. Each was diluted to 20 mL with ultra pure water and vortexed until completely mixed. Each formulation was made the morning of exposure to alleviate any storing/stability issues.
Eighty-seven (87) male BALB/c mice (8 weeks of age on arrival and 18.6-24.6 g on exposure day) were purchased from Charles River Laboratories (Raleigh, N.C.). The three animals with the lowest body weights and the three with the highest body weights were excluded from the study on the day of randomization. The remaining eighty-one (81) animals were assigned to the study. Temperatures and relative humidity (RH) in animal housing areas were within the target range specified in the protocol.
Animals were exposed to one of three concentrations of Compound A aerosols for a target of 30 min.
The actual concentrations of test article in the exposure atmospheres were determined by chemical analysis of timed filter samples collected directly from a nose-only exposure port during exposure. In addition, one impactor sample was obtained to verify particle size distribution (PSD), which is characterized by mass median aerodynamic diameter (MMAD) and geometric standard deviation (GSD). The filters and impactor stages were analyzed chemically by LRRI and are described below.

[1] = 0.15 mg/kg, mouse BALF, aerosol conc. 0.02 mg/L
[2] = 0.27 mg/kg, mouse BALF, aerosol conc. 0.07 mg/L
[3] = 0.7 mg/kg, mouse BALF, aerosol conc. 0.2 mg/L
[4] = mouse lung, aerosol conc. 0.02 mg/L
[5] = mouse lung, aerosol conc. 0.07 mg/L
[6] = mouse lung, aerosol conc. 0.2 mg/L
[7] = BALF, nominal aerosol 0.02 mg/L, read-out: Compound A concentration BALF
[8] = BALF, nominal aerosol 0.07 mg/L, read-out: Compound A concentration BALF
[9] = BALF, nominal aerosol 0.2 mg/L, read-out: Compound A concentration BALF
[10] = lung, nominal aerosol 0.02 mg/L, read-out: Compound A concentration Lung

Nc1nc(N)c2nc(-c3cccc(O)c3)c(-c3cccc(O)c3)nc2n1 [Compound A, 6,7-bis(3-hydroxyphenyl)-pteridine-2,4-diamine]
time course of concentration in lung and BALF (FIGS. 1 and 2, higher concentrations for mice exposed to higher doses): dose dependent
Maximum concentration in the BALF (Group A (0.02 mg/L)): 1190 ng/mL
Maximum concentration in the lung (Group A (0.02 mg/L)): 20.9 µg/g
time of maximum concentration in the BALF (Group A (0.02 mg/L)): 0.25 h
time of maximum concentration in the lung (Group A (0.02 mg/L)): 0.08 h
Maximum concentration in the BALF (Group B (0.07 mg/L)): 2140 ng/mL
time of maximum concentration in the BALF (Group B (0.07 mg/L)): 0.08 h
time of maximum concentration in the lung (Group B (0.07 mg/L)): 2.00 h
Maximum concentration in the BALF (Group C (0.2 mg/L)): 5670 ng/mL
time of maximum concentration in the BALF (Group C (0.2 mg/L)): 0.25 h
time of maximum concentration in the lung (Group C (0.2 mg/L)): 0.50 h
plasma levels (all aerosol concentrations, generally): < LLOQ
AUC(0-inf) [1]: 21700 ng·h/mL
Cmax [1]: 1190 ng/mL
Tmax [1]: 15 min
AUC(0-t) [1]: 8850 ng·h/mL
AUC(0-inf) [2]: 30400 ng·h/mL
Cmax [2]: 2140 ng/mL
Tmax [2]: 4.8 min
AUC(0-t) [2]: 18100 ng·h/mL
AUC(0-inf) [3]: 54300 ng·h/mL
Cmax [3]: 5670 ng/mL
Tmax [3]: 15 min
AUC(0-t) [3]: 37200 ng·h/mL
Cmax [4]: 20900 ng/g
Tmax [4]: 4.8 min
Cmax [5]: 22700 ng/g
Tmax [5]: 120 min
Cmax [6]: 67200 ng/g
Tmax [6]: 30 min
concentration at 0.083 h [7]: 896 ± 41.7 ng/mL
concentration at 0.25 h [7]: 1190 ± 35.4 ng/mL
concentration at 0.5 h [7]: 457 ± 219 ng/mL
concentration at 1 h [7]: 831 ± 288 ng/mL
concentration at 2 h [7]: 813 ± 117 ng/mL
concentration at 4 h [7]: 541 ± 409 ng/mL
concentration at 8 h [7]: 286 ± 156 ng/mL
concentration at 12 h [7]: 296 ± 19.1 ng/mL
concentration at 24 h [7]: 223 ± 91.2 ng/mL
concentration at 0.083 h [8]: 2140 ± 1340 ng/mL
concentration at 0.25 h [8]: 1190 ± 270 ng/mL
concentration at 0.5 h [8]: 1350 ± 559 ng/mL
concentration at 1 h [8]: 1250 ± 359 ng/mL
concentration at 2 h [8]: 930 ± 818 ng/mL
concentration at 4 h [8]: 1310 ± 1010 ng/mL
concentration at 8 h [8]: 800 ± 225 ng/mL
concentration at 12 h [8]: 569 ± 142 ng/mL
concentration at 24 h [8]: 512 ± 128 ng/mL
concentration at 0.083 h [9]: 3150 ± 110 ng/mL
concentration at 0.25 h [9]: 5670 ± 2550 ng/mL
concentration at 0.5 h [9]: 2220 ± 1910 ng/mL
concentration at 1 h [9]: 2570 ± 2030 ng/mL
concentration at 2 h [9]: 3190 ± 2580 ng/mL
concentration at 4 h [9]: 3350 ± 687 ng/mL
concentration at 8 h [9]: 1370 ± 185 ng/mL
concentration at 12 h [9]: 1050 ± 799 ng/mL
concentration at 24 h [9]: 694 ± 56 ng/mL
concentration at 0.083 h [10]: 20900 ± 13200 ng/g
concentration at 0.25 h [10]: 10100 ± 1390 ng/g
concentration at 0.5 h [10]: 11700 ± 8050 ng/g
concentration at 1 h [10]: 11800 ± 7260 ng/g
